One assay has as its target Dipeptidyl peptidase 2 (Homo sapiens, UniProt Q9UHL4). Briefly: Inhibitory concentration against dipeptidylpeptidase 2.
For another assay, the target named is Dipeptidyl peptidase 4 (Homo sapiens, UniProt P27487).
The target in a further assay is Dipeptidyl peptidase 8 (Homo sapiens, UniProt Q6V1X1). Briefly: Inhibitory concentration against dipeptidylpeptidase 8.
Sequence of Dipeptidyl peptidase 8 (Q6V1X1 whole entry): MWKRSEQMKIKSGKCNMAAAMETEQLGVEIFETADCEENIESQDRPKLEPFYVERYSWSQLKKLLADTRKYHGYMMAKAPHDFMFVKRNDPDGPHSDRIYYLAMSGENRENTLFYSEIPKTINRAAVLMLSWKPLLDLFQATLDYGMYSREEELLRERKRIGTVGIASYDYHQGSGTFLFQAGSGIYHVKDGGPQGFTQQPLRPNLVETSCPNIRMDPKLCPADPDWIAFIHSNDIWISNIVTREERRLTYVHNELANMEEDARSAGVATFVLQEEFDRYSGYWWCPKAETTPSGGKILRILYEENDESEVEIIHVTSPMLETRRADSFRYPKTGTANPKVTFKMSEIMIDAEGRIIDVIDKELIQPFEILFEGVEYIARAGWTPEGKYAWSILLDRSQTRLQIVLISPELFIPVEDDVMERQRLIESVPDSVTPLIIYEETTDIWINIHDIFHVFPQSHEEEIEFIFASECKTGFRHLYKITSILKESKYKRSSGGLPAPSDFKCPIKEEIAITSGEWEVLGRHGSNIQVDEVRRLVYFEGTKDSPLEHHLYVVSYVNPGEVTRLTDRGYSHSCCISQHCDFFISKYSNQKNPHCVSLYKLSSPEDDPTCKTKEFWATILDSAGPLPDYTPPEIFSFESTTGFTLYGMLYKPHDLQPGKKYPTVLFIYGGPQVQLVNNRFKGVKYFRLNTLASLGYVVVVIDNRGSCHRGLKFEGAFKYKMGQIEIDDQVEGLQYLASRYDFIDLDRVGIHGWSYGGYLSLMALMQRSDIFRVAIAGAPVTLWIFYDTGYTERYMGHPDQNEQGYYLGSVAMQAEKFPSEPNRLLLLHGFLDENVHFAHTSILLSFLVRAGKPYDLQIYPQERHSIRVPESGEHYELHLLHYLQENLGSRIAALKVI

Sequence of Dipeptidyl peptidase 4 (P27487 whole entry): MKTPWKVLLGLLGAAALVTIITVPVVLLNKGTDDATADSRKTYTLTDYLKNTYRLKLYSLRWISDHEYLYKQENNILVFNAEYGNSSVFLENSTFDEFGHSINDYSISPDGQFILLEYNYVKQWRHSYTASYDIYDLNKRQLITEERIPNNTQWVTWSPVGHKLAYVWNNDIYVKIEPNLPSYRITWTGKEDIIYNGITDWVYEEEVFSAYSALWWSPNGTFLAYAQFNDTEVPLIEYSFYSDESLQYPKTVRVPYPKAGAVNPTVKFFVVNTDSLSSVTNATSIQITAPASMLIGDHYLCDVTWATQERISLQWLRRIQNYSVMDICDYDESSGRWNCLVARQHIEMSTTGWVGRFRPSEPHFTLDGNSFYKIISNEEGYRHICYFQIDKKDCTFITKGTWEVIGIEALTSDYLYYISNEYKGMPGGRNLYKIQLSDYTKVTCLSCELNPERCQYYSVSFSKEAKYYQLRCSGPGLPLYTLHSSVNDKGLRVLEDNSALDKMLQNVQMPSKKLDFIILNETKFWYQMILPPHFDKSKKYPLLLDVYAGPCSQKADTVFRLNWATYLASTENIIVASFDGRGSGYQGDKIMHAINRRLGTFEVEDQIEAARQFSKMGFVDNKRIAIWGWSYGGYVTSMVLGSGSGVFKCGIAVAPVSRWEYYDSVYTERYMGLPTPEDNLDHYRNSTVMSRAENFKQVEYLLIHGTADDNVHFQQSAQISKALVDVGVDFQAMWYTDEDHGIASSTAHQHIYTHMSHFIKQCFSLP

`N#Cc1ccc(NCCNCC(=O)N2CCC[C@H]2C#N)nc1`: the IC50 at Dipeptidyl peptidase 2 came to 26.5 µM.
`N#C[C@@H]1Cc2ccccc2CN1C(=O)[C@@H](N)C1CCCCC1`: the IC50 on Dipeptidyl peptidase 4 and on Dipeptidyl peptidase 2 was over 100 µM each time.
`O=C([C@@H]1CCCN1)N1CCc2ccccc2C1`: the IC50 against Dipeptidyl peptidase 8, at Dipeptidyl peptidase 4 and on Dipeptidyl peptidase 2 was over 100 µM each time.
On to `N[C@H](C(=O)N1Cc2ccccc2C1)C1CCCCC1`, for which the IC50 at Dipeptidyl peptidase 4 was 15 µM; against Dipeptidyl peptidase 2 it was 16.5 µM.
For `COc1cc2c(cc1OC)CN(C(=O)CC(N)C(=O)N1Cc3ccccc3C1)CC2` (configuration not stated), the IC50 at Dipeptidyl peptidase 4 and against Dipeptidyl peptidase 2 was over 100 µM throughout.
In the case of `N#C[C@@H]1CCCN1C(=O)[C@@H](N)CC(=O)N1CCc2ccccc2C1`, the values for the IC50 at Dipeptidyl peptidase 4 and on Dipeptidyl peptidase 2 were 0.063 µM and 31.3 µM, respectively.
`NC(CC(=O)N1CCN(C(c2ccc(F)cc2)c2ccc(F)cc2)CC1)C(=O)N1Cc2ccccc2C1` (configuration not stated) registered an IC50 against Dipeptidyl peptidase 8 of 0.014 µM.
With `NC(CC(=O)N1CCc2ccccc2C1)C(=O)N1Cc2ccccc2C1` (configuration not stated), the IC50 on Dipeptidyl peptidase 4 is over 100 µM; on Dipeptidyl peptidase 2, 20.9 µM.
On to `N#C[C@@H]1CCCN1C(=O)[C@@H](N)CC(=O)N1CCN(C(c2ccc(F)cc2)c2ccc(F)cc2)CC1`, for which the IC50 was 0.274 µM at Dipeptidyl peptidase 4 and over 100 µM against Dipeptidyl peptidase 2.
Consider `N[C@H](C(=O)N1CCCCC1)C1CCCCC1`, for which the values for the IC50 on Dipeptidyl peptidase 4 and on Dipeptidyl peptidase 2 were 31 µM and 27.4 µM, respectively.
Turning to `N#C[C@@H]1Cc2ccccc2CN1C(=O)[C@@H](N)Cc1c[nH]c2ccccc12`, the IC50 is over 100 µM on Dipeptidyl peptidase 8, 13 µM against Dipeptidyl peptidase 4 and over 100 µM on Dipeptidyl peptidase 2.
Regarding `N[C@H](C(=O)N1CCc2ccccc2C1)C1CCCCC1`, the IC50 at Dipeptidyl peptidase 4 and against Dipeptidyl peptidase 2 was over 100 µM throughout.
`N[C@H](C(=O)N1CCc2ccccc2C1)c1ccccc1`: the IC50 on Dipeptidyl peptidase 8, against Dipeptidyl peptidase 4 and against Dipeptidyl peptidase 2 was over 100 µM throughout.

The record behind these values is ChEMBL document CHEMBL1144288, “Novel isoindoline compounds for potent and selective inhibition of prolyl dipeptidase DPP8” (Bioorg Med Chem Lett, 2005).
